Values of other authors in PMC9655391 (International Journal of Molecular Sciences, 2022).

Conditions: oral administration; ref [16],[20],[21],[22]

SMILES: CCCCc1nc(Cl)c(CO)n1Cc1ccc(-c2ccccc2-c2nn[nH]n2)cc1 [LP, losartan potassium]
- bioavailability: 32%
